Reference: patent US4545932A, “Glucosaminyl muramyl peptide derivatives” (Dainippon Pharmaceutical Co., Ltd., priority 1982, dated 1985)
One block for each compound: values may come before it.

Experiments:
Assay type in all cases: in vivo
[1] = Pyrogenicity in rabbits; conditions: for Pyrogenicity in rabbits: injected into ear vein, three rabbits per group
Protocol: Rabbits (each group: three rabbits) were used. Test compounds dissolved in a physiological saline solution were each injected into ear vein of rabbits. The difference between maximum body temperature within three hours after the injection of test compound and the body temperature before the injection was regarded as rise in body temperature. The degree of pyrogenicity was evaluated according to the following criterion: […]

[2] = test system: various microorganisms; assay: Antiinfectious effect in mice; conditions: similar experiments; no data given
Excerpt: (§1) Std-ddY male mice weighing about 23 g (each group: 8 mice) were used. Test compounds dissolved in a physiological saline solution were each intravenously administered to mice once a day 1, 2 and 3 days before the infection. Twenty-four hours after the final administration of test compounds, the mice were infected with various microorganisms suspended in saline (in case of Staphylococcus aureus and Candida albicans) or in Trypto-Soy Broth (manufactured by Eiken Chemical Co., Ltd., Japan) (in case of Pseudomonas aeruginosa and Escherichia coli) under the conditions as shown in Table 1. When the experiment was repeated twice or more, the data were pooled.
Besides, as to the compounds of Examples 8, 18, 36, 37 and 45 (derivatives of GMP3 -A), similar experiments were done.

[3] = test system: Staphylococcus aureus No. 50774; assay: Prophylactic effect on experimental infection, Staphylococcus aureus; conditions: Std-ddY male mice, 14 days after infection
Excerpt: as §1
(§2) ^a Test compounds were intravenously administered once a day 1, 2 and
(§3) 3 days before infection.
(§4) ^b Figures represent (number of survivals)/(number of animals tested)
(§5) and figures in parenthesis represent percent survival.

[4] = test system: Pseudomonas aeruginosa No. 12; assay: Prophylactic effect on experimental infection, Pseudomonas aeruginosa; conditions: Std-ddY male mice, 7 days after infection
Excerpt: as §1, §2, §3, §4, §5

[5] = test system: Escherichia coli P-5101; assay: Prophylactic effect on experimental infection, Escherichia coli; conditions: Std-ddY male mice, 7 days after infection
Excerpt: as §1, §2, §3, §4, §5

[6] = test system: Candida albicans 3170; assay: Prophylactic effect on experimental infection, Candida albicans; conditions: Std-ddY male mice, 7 days after infection
Excerpt: as §1
3170 fungal sus- infection
as §2, §3, §4, §5

[7] = similar experiments, no data given
[8] = Dose 0.05 mg/kg i.v. once a day 1, 2 and 3 days before infection
[9] = Dose 0.125 mg/kg i.v. once a day 1, 2 and 3 days before infection
[10] = Dose 0.2 mg/kg i.v. once a day 1, 2 and 3 days before infection
[11] = Dose 0.8 mg/kg i.v. once a day 1, 2 and 3 days before infection
[12] = Dose 3.1 mg/kg i.v. once a day 1, 2 and 3 days before infection
[13] = Dose 12.5 mg/kg i.v. once a day 1, 2 and 3 days before infection
[14] = Dose 0.0125 mg/kg i.v. once a day 1, 2 and 3 days before infection
[15] = Dose 50 mg/kg i.v. once a day 1, 2 and 3 days before infection

SMILES: CCCCCCCCC=CCCCCCCCC(=O)NC(CCCC(NC(=O)CCC(NC(=O)C(C)NC(=O)C(C)OC1C(NC(C)=O)C(O)OC(CO)C1OC1OC(CO)C(O)C(O)C1NC(C)=O)C(N)=O)C(=O)[O-])C(N)=O.[Na+] (stereo not shown) [Example 8]
pyrogenicity compared with GMP3 -A [1, 7]: less pyrogenicity than GMP3 -A
antiinfectious effect compared with GMP3 -A [2]: more potent antiinfectious effect

SMILES: CCCCCCCCCCCCCCCCCC(=O)NC(CCCC(NC(=O)CCC(NC(=O)C(C)NC(=O)C(C)OC1C(NC(C)=O)C(O)OC(CO)C1OC1OC(CO)C(O)C(O)C1NC(C)=O)C(N)=O)C(=O)[O-])C(N)=O.[Na+] (stereo not shown) [Example 18]
pyrogenicity compared with GMP3 -A [1, 7]: less pyrogenicity than GMP3 -A
antiinfectious effect compared with GMP3 -A [2]: more potent antiinfectious effect

pyrogenicity compared with GMP3 -A ([1]; rabbit, in vivo): by far the less than that of GMP3 -A
SMILES: CC(=O)NC(CCCC(NC(=O)CCC(NC(=O)C(C)NC(=O)C(C)OC1C(NC(C)=O)C(O)OC(CO)C1OC1OC(CO)C(O)C(O)C1NC(C)=O)C(N)=O)C(N)=O)C(N)=O [Example 36, β-N-acetylglucosaminyl-(1→4)-N-acetylmuramyl-L-alanyl-D-isoglutaminyl-(L)-acetyl-(D)-meso-2,6-diaminopimelic acid-(D),(L)-diamide]

pyrogenicity compared with GMP3 -A ([1]; rabbit, in vivo): by far the less than that of GMP3 -A
SMILES: CCCCCCCCCCNC(=O)C(CCCC(NC(C)=O)C(N)=O)NC(=O)CCC(NC(=O)C(C)NC(=O)C(C)OC1C(NC(C)=O)C(O)OC(CO)C1OC1OC(CO)C(O)C(O)C1NC(C)=O)C(N)=O (stereo not shown) [Example 37]

pyrogenicity compared with GMP3 -A ([1]; rabbit, in vivo): by far the less than that of GMP3 -A
SMILES: CCCCCCCCCCCCCCCCCCNC(=O)C(CCCC(N)C(N)=O)NC(=O)CCC(NC(=O)C(C)NC(=O)C(C)OC1C(NC(C)=O)C(O)OC(CO)C1OC1OC(CO)C(O)C(O)C1NC(C)=O)C(N)=O.Cl [Example 45, β-N-acetylglucosaminyl-(1→4)-N-acetylmuramyl-L-alanyl-D-isoglutaminyl-(L)-meso-2,6-diaminopimelic acid-(D)-amide-(L)-octadecylamide hydrochloride]

SMILES: CC(=O)NC1C(OC2C(CO)OC(O)C(NC(C)=O)C2OC(C)C(=O)NC(C)C(=O)NC(CCC(=O)NC(CCCC(N)C(N)=O)C(=O)NC(C)C(=O)O)C(N)=O)OC(CO)C(O)C1O [GMP4 -A, β-N-acetylglucosaminyl-(1→4)-N-acetylmuramyl-L-alanyl-D-isoglutaminyl-(L)-meso-2,6-diaminopimelic acid-(D)-amide-(L)-D-alanine, reference compound]
(number of survivals)/(number of animals tested) [3, 8]: 3/24
percent survival [3, 8]: 12.5%
(number of survivals)/(number of animals tested) [3, 9]: 0/8
percent survival [3, 9]: 0%
(number of survivals)/(number of animals tested) [3, 10]: 6/16
percent survival [3, 10]: 37.5%
(number of survivals)/(number of animals tested) [3, 11]: 11/32
percent survival [3, 11]: 34.4%
(number of survivals)/(number of animals tested) [3, 12]: 11/32
percent survival [3, 12]: 34.4%
(number of survivals)/(number of animals tested) [3, 13]: 23/32
percent survival [3, 13]: 71.9%
(number of survivals)/(number of animals tested) [4, 14]: 12/40
percent survival [4, 14]: 30%
(number of survivals)/(number of animals tested) [4, 8]: 16/48
percent survival [4, 8]: 33.3%
(number of survivals)/(number of animals tested) [4, 10]: 23/56
percent survival [4, 10]: 41.1%
(number of survivals)/(number of animals tested) [4, 11]: 31/72
percent survival [4, 11]: 43.1%
(number of survivals)/(number of animals tested) [4, 12]: 27/64
percent survival [4, 12]: 42.2%
(number of survivals)/(number of animals tested) [4, 13]: 32/48
percent survival [4, 13]: 66.7%
(number of survivals)/(number of animals tested) [5, 10]: 0/8
percent survival [5, 10]: 0%
(number of survivals)/(number of animals tested) [5, 11]: 0/8
percent survival [5, 11]: 0%
(number of survivals)/(number of animals tested) [5, 12]: 5/24
percent survival [5, 12]: 20.8%
(number of survivals)/(number of animals tested) [5, 13]: 10/24
percent survival [5, 13]: 41.7%
(number of survivals)/(number of animals tested) [5, 15]: 10/16
percent survival [5, 15]: 62.5%
(number of survivals)/(number of animals tested) [6, 12]: 2/8
percent survival [6, 12]: 25%
(number of survivals)/(number of animals tested) [6, 13]: 4/8
percent survival [6, 13]: 50%
(number of survivals)/(number of animals tested) [6, 15]: 6/8
percent survival [6, 15]: 75%
Pyrogenicity in rabbits ([1]; Dose 0.1 mg/rabbit): - (one animal showed rise in body temperature of 0.6 °C or more)
Pyrogenicity in rabbits ([1]; Dose 0.3 mg/rabbit): + (two or more animals showed rise in body temperature of 0.6 °C or more)
Pyrogenicity in rabbits ([1]; Dose 1 mg/rabbit): + (two or more animals showed rise in body temperature of 0.6 °C or more)
Pyrogenicity in rabbits ([1]; Dose 3 mg/rabbit): + (two or more animals showed rise in body temperature of 0.6 °C or more)
Pyrogenicity in rabbits ([1]; Dose 10 mg/rabbit): + (two or more animals showed rise in body temperature of 0.6 °C or more)
